Data reported in patent publication US6214833A, “Pyrimidinone-1,3-oxathiolane derivatives with antiviral activity” (Zambon Group S.p.A., priority 1997, dated 2001).

Test system: limphocitic human cell line MT4 infected by HIV-1 strain BRU
Assay: anti-HIV activity on lymphocytes (MT4 cells): inhibition of viral reverse transcriptase activity in culture supernatant
Type: cell-based, HIV-1 strain BRU; human MT4 cells
Settings: Human immunodeficiency virus 1, Lymphocyte, MT4 human lymphocytes infected by HIV-1 BRU, 7-8 days culture at 37° C.
Procedure: (§1) The antiviral activity of the compounds of formula I, object of the present invention, was evaluated on the MT4 human lymphocytes infected by HIV-1 BRU strain and on fresh human macrophages infected by the macrophage-trophic HIV-1 PAR strain.
(§2) Both kinds of experiment were carried out following conventionally used methods for the evaluation of reverse transcriptase inhibitors and are predictive of the in vivo anti-HIV activity.
(§3) The anti-HIV activity of the compounds of formula I was evaluated on the limphocitic human cell line MT4 infected by HIV-1 strain BRU and on fresh human macrophages infected by the macrophage-trophic HIV- 1 PAR strain.
The cells, infected and treated with the compounds of formula I, were cultured at 37° C. for 7-8 days. Every 3-4 days the culture supernatant was withdrawn and substituted with fresh medium containing or not the compounds of formula I. The anti-HIV activity was evaluated at the end of the experiment as 50% inhibition (IC50) of the activity of the viral reverse transcriptase in the supernatant of infected cultures in comparison with the control cultures.
The used methodologies were described in the papers published by Rey M. A. et al. on Biochem. Biophys. Res. Commun. (1984), 121, 126-133 and on Virology (1991), 181, 165-171.
(§4) In the following table the data of anti-HIV activity on both the cell lines for some representative compounds of formula I are reported.

SMILES | IC50 [nM]
Nc1ccn([C@@H]2CS[C@H](CO)O2)c(=O)n1 (relative stereo) [BCH-189, 4-amino-1-(2-hydroxymethyl-1,3-oxathiolan-5-yl)-2(1H)-pyrimidinone, reference compound] | 700
CC(C)(C)OC(=O)N(CCCCCC(=O)OC[C@@H]1O[C@H](n2ccc(N)nc2=O)CS1)CCCCCN(Cc1ccccc1)C(=O)OC(C)(C)C (relative stereo) [Compound 1, (±)-4-Amino-1-[2-[6-[5-(N'-tert-butoxycarbonyl-N'-phenylmethylamino)-N-tert-butoxycarbonyl-pentylamino]-hexanoyloxymethyl]-1,3-oxathiolan-5-yl]-2(1H)-pyrimidinone] | 1 to 5
CC(C)(C)OC(=O)N(CCCCCC(=O)OC[C@@H]1O[C@H](n2ccc(N)nc2=O)CS1)Cc1ccccc1 (relative stereo) [Compound 4, (±)-4-Amino-1-[2-[6-(N-tert-butoxycarbonyl-N-phenylmethylamino)-hexanoyloxy-methyl]-1,3-oxathiolan-5-yl]-2(1H)-pyrimidinone] | 1
CC(C)(C)OC(=O)N(CCCCCC(=O)OC[C@@H]1O[C@H](n2ccc(N)nc2=O)CS1)Cc1cccc(C(F)(F)F)c1 (relative stereo) [Compound 6, (±)-4-Amino-1-[2-[6-[N-tert-butoxycarbonyl-N-(3trifluoromethylphenyl)methyl-amino]-hexanoyloxymethyl-]1,3-oxathiolan-5-yl]-2(1H)-pyrimidinone] | 4
CC(C)(C)OC(=O)N(CCCCCC(=O)OC[C@@H]1O[C@H](n2ccc(N)nc2=O)CS1)Cc1ccccc1C(F)(F)F (relative stereo) [Compound 7, (±)-4-Amino-1-[2-[6-[N-tert-butoxycarbonyl-N-(2-trifluoromethyl-phenyl)methyl-amino]-hexanoyloxymethyl-]-1,3-oxathiolan-5-yl]-2(1H)-pyrimidinone] | 1 to 10
CC(C)(C)OC(=O)N(CCCCCCN(Cc1ccccc1C(F)(F)F)C(=O)OC(C)(C)C)CCCCCC(=O)OC[C@@H]1O[C@H](n2ccc(N)nc2=O)CS1 (relative stereo) [Compound 8, (±)-4-Amino-1-[2-[6-[6-[N'-tert-butoxycarbonyl-N'-(2-trifluoromethylphenyl)methylamino]-N-tert-butoxycarbonyl-hexylamino]-hexanoyloxymethyl]-1,3-oxathiolan-5-yl]-2(1H)-pyrimidinone] | 100
CCOC(=O)N(CCCCCC(=O)OC[C@@H]1O[C@H](n2ccc(N)nc2=O)CS1)Cc1ccccc1 (relative stereo) [Compound 9, (±)-4-Amino-1-[2-[6-(N-ethoxycarbonyl-N-phenylmethylamino)-hexanoyloxymethyl]-1,3-oxathiolan-5-yl]-2(1H)-pyrimidinone] | 1 to 50
CC(C)(C)OC(=O)N(CC(=O)OC[C@@H]1O[C@H](n2ccc(N)nc2=O)CS1)Cc1ccccc1 (relative stereo) [Compound 10, (±)-4-Amino-1-[2-[(N-tert-butoxycarbonyl-N-phenylmethylamino)-acetyloxymethyl]-1,3-oxathiolan-5-yl]-2(1H)-pyrimidinone] | 10 to 100
Nc1ccn([C@@H]2CS[C@H](COC(=O)CCCCCNCCCCCNCc3ccccc3)O2)c(=O)n1 (relative stereo) [Compound 48, (±)-4-Amino-1-[2-[6-[5-(phenylmethylamino)pentylamino]-hexanoyloxymethyl]-1,3-oxathiolan-5-yl]-2(1H)-pyrimidinone] | 150
Nc1ccn([C@@H]2CS[C@H](COC(=O)CCCCNCCCCCCNCc3ccccc3)O2)c(=O)n1 (relative stereo) [Compound 49, (±)-4-Amino-1-[2-[5-[6-(phenylmethylamino)hexylamino]-pentanoyloxymethyl]-1,3-oxathiolan-5-yl]-2(1H)-pyrimidinone] | 900
Nc1ccn([C@@H]2CS[C@H](COC(=O)CCCCCNCc3ccccc3)O2)c(=O)n1 (relative stereo) [Compound 52, (±)-4-Amino-1-[2-[6-(phenylmethylamino)hexanoyloxymethyl]-1,3-oxathiolan-5-yl]-2(1H)-pyrimidinone] | 100 to 1000
Nc1ccn([C@@H]2CS[C@H](COC(=O)CCCCCNCc3cccc(C(F)(F)F)c3)O2)c(=O)n1 (relative stereo) [Compound 53, (±)-4-Amino-1-[2-[6-[(3trifluorophenyl)methylamino]-hexanoyloxymethyl]-1,3-oxathiolan-5-yl]-2(1H)-pyrimidinone] | 700
Nc1ccn([C@@H]2CS[C@H](COC(=O)CCCCCNCCCCCCNCc3ccccc3C(F)(F)F)O2)c(=O)n1 (relative stereo) [Compound 54, (±)-4-Amino-1-[2-[6-[6-[(2-trifluoromethylphenyl)methylamino]-hexylamino]-hexanoyloxymethyl]-1,3-oxathiolan-5-yl]-2(1H)-pyrimidinone] | 800
Nc1ccn([C@@H]2CS[C@H](COC(=O)CCCCCNCc3ccccc3C(F)(F)F)O2)c(=O)n1 (relative stereo) [Compound 55, (±)-4-Amino-1-[2-[6-[(2-trifluorophenyl)methylamino]-hexanoyloxymethyl]-1,3-oxathiolan-5-yl]-2(1H)-pyrimidinone] | 100
O=C(CCCCCNCCCCCCNCc1ccccc1)Nc1ccn([C@@H]2CS[C@H](CO)O2)c(=O)n1 (relative stereo) [Compound 56, (±)-1-(2-Hydroxymethyl-1,3-oxathiolan-5-yl)-4-[6-[6-phenylmethylamino)hexylamino]-hexanoylamino]-2(1H)-pyrimidinone] | 130
O=C(CCCCCNCCCCCNCc1ccccc1)Nc1ccn([C@@H]2CS[C@H](CO)O2)c(=O)n1 (relative stereo) [Compound 57, (±)-1-(2-Hydroxymethyl-1,3-oxathiolan-5-yl)-4-[6-[5-(phenylmethylamino)pentylamino]-hexanoylamino]-2(1H)-pyrimidinone] | 410
CC(C)(C)OC(=O)N(CCCCCC(=O)OC[C@H]1O[C@@H](n2ccc(N)nc2=O)CS1)CCCCCN(Cc1ccccc1)C(=O)OC(C)(C)C [Compound 2, (2S, 5R)-4-Amino-1-[2-[6-[5-(N'-tert-butoxycarbonyl-N'-phenylmethylamino)-N-tert-butoxycarbonyl-pentylamino]-hexanoyloxymethyl]-1,3-oxathiolan-5-yl]-2(1H)-pyrimidinone] | < 100

Test system: HIV
Assay: not given
Settings: compared with zidovudine, zalcitabine, didanosine and stavudine; WO 91/17159; cited from earlier work

SMILES | antiviral potency and toxicity compared with other RT-inhibitors
Nc1ccn([C@@H]2CS[C@H](CO)O2)c(=O)n1 [lamivudine, (2R-cis)-4-amino-1-(2-hydroxymethyl-1,3-oxathiolan-5-yl)-2(1H)-pyrimidinone] | more potent and less toxic antiviral than zidovudine, zalcitabine, didanosine and stavudine

Test system: fresh human macrophages infected by the macrophage-trophic HIV-1 PAR strain
Assay: anti-HIV activity on macrophages: inhibition of viral reverse transcriptase activity in culture supernatant at peak
Type: cell-based, HIV-1 PAR strain; human macrophages
Settings: Human immunodeficiency virus 1, Macrophage; fresh human macrophages infected by HIV-1 PAR; about 1 month culture at 37° C.; at peak of reverse transcriptase expression
Procedure: as §1, §2, §3
The cells, infected and treated with the compounds of formula I, were cultured at 37° C. for about 1 month. Every 3-4 days the culture supernatant was withdrawn and substituted with fresh medium containing or not the compounds of formula I. The viral reverse-transcriptase activity, determined in the culture supernatant every 3-4 days, was followed up to the end of the experiment by determining the maximum peak of the enzyme expression. In the correspondence of such a peak the anti-HIV activity was evaluated as 50% inhibition (IC50) of the enzymatic activity in the supernatant of the infected and treated cultures in comparison with the control ones.
The used methodology was described by Schmidtmayerova H. et al. on Virology (1992), 190, 124-133.
as §4

IC50 [nM] | SMILES
100 | Nc1ccn([C@@H]2CS[C@H](CO)O2)c(=O)n1 (relative stereo) [BCH-189, 4-amino-1-(2-hydroxymethyl-1,3-oxathiolan-5-yl)-2(1H)-pyrimidinone, reference compound]
100 | O=C(CCCCCNCCCCCCNCc1ccccc1)Nc1ccn([C@@H]2CS[C@H](CO)O2)c(=O)n1 (relative stereo) [Compound 56, (±)-1-(2-Hydroxymethyl-1,3-oxathiolan-5-yl)-4-[6-[6-phenylmethylamino)hexylamino]-hexanoylamino]-2(1H)-pyrimidinone]
100 | O=C(CCCCCNCCCCCNCc1ccccc1)Nc1ccn([C@@H]2CS[C@H](CO)O2)c(=O)n1 (relative stereo) [Compound 57, (±)-1-(2-Hydroxymethyl-1,3-oxathiolan-5-yl)-4-[6-[5-(phenylmethylamino)pentylamino]-hexanoylamino]-2(1H)-pyrimidinone]
